Patent US12509431B2, “1,4-dihydroquinazolinone compounds and uses thereof” (Edgewise Therapeutics, Inc., priority 2022, dated 2025)

Experiments:
Type in all cases: biochemical
Settings in all cases: Table 8
[1] = system: Rabbit Skeletal myofibrils (rabbit psoas muscle); test: Myofibril ATPase assay (PK/LDH NADH-coupled), skeletal myofibrils
In short: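 ATPase rate taken as linear-regression slope of A340 (NADH depletion through PK/LDH coupling) over a 75 min kinetic read, with psoas-derived rabbit skeletal myofibrils at pH 7.0. Four-parameter fits of vehicle-normalized activity give EC25 and, where reached, EC50.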

Porcine Atria myofibrils = test: Myofibril ATPase assay (PK/LDH NADH-coupled), atria myofibrils
In short: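 Values are EC25% (and, for inhibitors, EC50%) from 4-parameter logistic fits of activity normalized to vehicle wells. Rates came from linear regression of 340 nm kinetic reads (every 1.5-2 min, 75 min) of NADH-coupled ATP turnover by porcine atria myofibrils.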

[2] = biological target: T1, Porcine Ventricle myofibrils (left ventricle of Yucatan minipigs) (Sus scrofa, UniProt P79293); test: Myofibril ATPase assay (PK/LDH NADH-coupled), ventricle myofibrils
T1 construct: Myofibrils from porcine cardiac muscle was isolated from the left ventricle of Yucatan minipigs; tissue Exemplar Genetics; host or cells: left ventricle of Yucatan minipigs
T1 sequence (P79293 whole entry): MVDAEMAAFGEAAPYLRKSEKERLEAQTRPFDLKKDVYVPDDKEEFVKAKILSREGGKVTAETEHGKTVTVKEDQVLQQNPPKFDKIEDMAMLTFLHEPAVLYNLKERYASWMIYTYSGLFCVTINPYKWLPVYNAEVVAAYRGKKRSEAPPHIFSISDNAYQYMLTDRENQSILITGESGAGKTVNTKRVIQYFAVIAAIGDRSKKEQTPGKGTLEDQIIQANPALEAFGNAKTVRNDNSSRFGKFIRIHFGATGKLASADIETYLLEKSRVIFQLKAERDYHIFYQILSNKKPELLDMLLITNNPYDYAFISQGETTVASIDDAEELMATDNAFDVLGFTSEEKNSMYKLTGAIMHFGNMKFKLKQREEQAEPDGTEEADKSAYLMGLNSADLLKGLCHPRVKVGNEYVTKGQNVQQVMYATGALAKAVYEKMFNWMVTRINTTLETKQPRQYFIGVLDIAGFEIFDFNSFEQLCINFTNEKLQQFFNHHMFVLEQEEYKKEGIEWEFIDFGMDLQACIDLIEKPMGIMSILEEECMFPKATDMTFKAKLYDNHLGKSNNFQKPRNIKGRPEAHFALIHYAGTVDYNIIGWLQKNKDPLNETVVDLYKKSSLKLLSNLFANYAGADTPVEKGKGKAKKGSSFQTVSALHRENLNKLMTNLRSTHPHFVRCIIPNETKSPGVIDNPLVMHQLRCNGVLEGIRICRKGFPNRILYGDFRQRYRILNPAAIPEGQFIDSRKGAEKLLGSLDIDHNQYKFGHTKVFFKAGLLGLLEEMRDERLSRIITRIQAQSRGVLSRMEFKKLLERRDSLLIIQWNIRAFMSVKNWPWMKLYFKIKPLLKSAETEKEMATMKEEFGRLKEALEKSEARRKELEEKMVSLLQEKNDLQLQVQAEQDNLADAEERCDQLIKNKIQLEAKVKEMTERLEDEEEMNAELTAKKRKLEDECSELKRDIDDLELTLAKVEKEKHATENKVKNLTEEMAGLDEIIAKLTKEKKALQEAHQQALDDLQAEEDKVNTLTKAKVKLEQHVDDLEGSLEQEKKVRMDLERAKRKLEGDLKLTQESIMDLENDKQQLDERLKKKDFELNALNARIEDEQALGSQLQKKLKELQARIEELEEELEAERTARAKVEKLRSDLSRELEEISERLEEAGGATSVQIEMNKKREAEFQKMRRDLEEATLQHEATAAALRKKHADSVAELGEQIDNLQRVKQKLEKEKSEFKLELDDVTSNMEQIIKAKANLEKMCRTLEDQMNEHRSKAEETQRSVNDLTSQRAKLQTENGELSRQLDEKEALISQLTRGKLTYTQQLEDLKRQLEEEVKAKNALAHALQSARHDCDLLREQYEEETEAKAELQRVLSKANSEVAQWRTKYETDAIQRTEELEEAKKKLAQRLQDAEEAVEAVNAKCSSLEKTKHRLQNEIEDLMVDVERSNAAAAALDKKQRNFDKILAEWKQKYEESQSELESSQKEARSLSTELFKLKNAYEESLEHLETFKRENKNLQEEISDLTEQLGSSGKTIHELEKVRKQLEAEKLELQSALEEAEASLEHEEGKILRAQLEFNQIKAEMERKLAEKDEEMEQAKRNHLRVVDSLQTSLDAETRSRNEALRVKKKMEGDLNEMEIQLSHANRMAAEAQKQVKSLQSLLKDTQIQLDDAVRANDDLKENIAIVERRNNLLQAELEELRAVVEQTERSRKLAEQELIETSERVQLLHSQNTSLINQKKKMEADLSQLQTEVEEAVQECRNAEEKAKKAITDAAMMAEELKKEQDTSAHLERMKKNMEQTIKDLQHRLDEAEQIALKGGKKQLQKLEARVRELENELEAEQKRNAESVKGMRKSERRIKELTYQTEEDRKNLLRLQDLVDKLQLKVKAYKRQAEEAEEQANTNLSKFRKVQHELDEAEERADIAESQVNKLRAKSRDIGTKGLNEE
In short: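 NADH depletion (A340) coupled through pyruvate kinase/lactate dehydrogenase reports ATPase rate of porcine left-ventricle myofibrils over 75 min kinetic reads. Regression slopes, vehicle-normalized, fitted by 4-parameter logistic give EC25 and, where available, EC50.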

Row | Rabbit Psoas IC25 [1] [µM] | Porcine Atria IC25 (Porcine Atria myofibrils) [µM] | Porcine Ventricle IC25 [2] [µM] | Compound
1 | 100 | 68.80 | 100 | COc1cccnc1[C@H](C)NC(=O)CN1Cc2cc(F)ccc2NC1=O [Compound B187]
2 | 0.4649 | 0.42 | 1.834 | C[C@@H](NC(=O)CN1Cc2c(ccc(F)c2F)NC1=O)c1ccc(C#N)cc1F [Compound B188]
3 | 9.504 | 17.83 | 50.31 | C[C@@H](NC(=O)CN1Cc2c(ccc(F)c2F)NC1=O)c1ncc(F)cc1F [Compound B190]
4 | 100 | 100.00 | 100 | Cc1cccnc1[C@@H](C)NC(=O)CN1Cc2cc(F)ccc2NC1=O [Compound B192]
5 | 41.67 | 28.17 | 40.61 | Cc1cccnc1[C@H](C)NC(=O)CN1Cc2cc(F)ccc2NC1=O [Compound B193]
6 | 6.088 | 3.71 | 78.56 | Cc1cnc([C@@H](C)NC(=O)CN2Cc3cc(F)ccc3NC2=O)c(F)c1 [Compound B194]
7 | 100 | 100.00 | 100 | Cc1cnc([C@H](C)NC(=O)CN2Cc3cc(F)ccc3NC2=O)c(F)c1 [Compound B195]
8 | 100 | 100.00 | 100 | C[C@@H](NC(=O)CN1Cc2cc(C#N)ccc2NC1=O)c1ncc(F)cc1F [Compound B196]
9 | 87.6 | 18.70 | 100 | C[C@H](NC(=O)CN1Cc2cc(C#N)ccc2NC1=O)c1ncc(F)cc1F [Compound B197]
10 | 100 | 100.00 | 100 | C[C@@H](NC(=O)CN1Cc2cc(F)ccc2NC1=O)c1ncc(C#N)cc1F [Compound B198]
11 | 18.61 | 25.98 | 100 | C[C@H]1c2ccccc2NC(=O)N1CC(=O)N[C@@H](CO)c1ccc(F)cc1F [Compound B201]
12 | 0.1741 | 0.18 | 1.035 | CC(NC(=O)CN1Cc2cc(F)ccc2NC1=O)c1ccccc1Br (stereo not drawn) [Compound B202]
13 | 14.19 | 5.48 | 23.26 | C[C@@H](NC(=O)CN1Cc2cc(F)ccc2NC1=O)c1ccc(C#N)cc1 [Compound B203]
14 | 0.1501 | 0.27 | 1.393 | C[C@H](NC(=O)CN1Cc2cc(F)ccc2NC1=O)c1ccc(C#N)cc1 [Compound B204]
15 | 6.054 | 2.07 | 16.29 | C[C@@H](NC(=O)CN1Cc2cc(F)ccc2NC1=O)c1ccc(C#N)cc1F [Compound B205]
16 | 100 | 100.00 | 100 | CC(C)C[C@@H](C(=O)N[C@@H](C)c1ccc(F)cc1F)N1Cc2cc(F)ccc2NC1=O [Compound B207]
17 | 100 | 100.00 | 100 | CC(C)C[C@H](C(=O)N[C@@H](C)c1ccc(F)cc1F)N1Cc2cc(F)ccc2NC1=O [Compound B208]
18 | 100 | 12.15 | 100 | Cc1ccc([C@@H](C)NC(=O)CN2Cc3cc(F)ccc3NC2=O)c(F)c1 [Compound B209]
19 | 0.1421 | 0.18 | 2.251 | Cc1ccc([C@H](C)NC(=O)CN2Cc3cc(F)ccc3NC2=O)c(F)c1 [Compound B210]
20 | 100 | 100.00 | 100 | C[C@@H](C(=O)N[C@H](CO)c1ccc(F)cc1F)N1Cc2c(Cl)cccc2NC1=O [Compound B211]
21 | 77.91 | 1.52 | 15.17 | C[C@@H](C(=O)N[C@@H](CO)c1ccc(F)cc1F)N1Cc2c(Cl)cccc2NC1=O [Compound B212]
22 | 100 | 97.43 | 100 | C[C@H](C(=O)N[C@H](CO)c1ccc(F)cc1F)N1Cc2c(Cl)cccc2NC1=O [Compound B213]

Row | Rabbit Psoas IC25 [1] [µM] | Porcine Atria IC25 (Porcine Atria myofibrils) [µM] | Porcine Ventricle IC25 [2] [µM] | Compound
23 | 0.088 | 0.07 | 0.2408 | C[C@H](C(=O)N[C@@H](CO)c1ccc(F)cc1F)N1Cc2c(Cl)cccc2NC1=O [Compound B214]
24 | 100 | 100.00 | 100 | C[C@@H](NC(=O)CN1Cc2cc(F)ccc2NC1=O)c1ncccn1 [Compound B215]
25 | 100 | 100.00 | 100 | C[C@H](NC(=O)CN1Cc2cc(F)ccc2NC1=O)c1ncccn1 [Compound B216]
26 | 0.0678 | 0.13 | 0.8987 | O=C(CN1Cc2cc(F)ccc2NC1=O)N[C@H](CO)c1ccc(F)cc1F [Compound B217]
27 | 9.306 | 8.55 | 100 | O=C(CN1Cc2cc(F)ccc2NC1=O)N[C@@H](CO)c1ccc(F)cc1F [Compound B218]
28 | 31.8 | 100.00 | 100 | C[C@H](NC(=O)[C@H](Cc1ccccc1)N1Cc2cc(F)ccc2NC1=O)c1ccc(F)cc1F [Compound B219]
29 | 47.56 | 53.57 | 100 | C[C@H](NC(=O)[C@@H](Cc1ccccc1)N1Cc2cc(F)ccc2NC1=O)c1ccc(F)cc1F [Compound B220]
30 | 0.0174 | 0.03 | 0.1086 | C[C@H](NC(=O)CN1C(=O)Nc2ccc(F)cc2C12CC2)c1ccc(F)cc1F [Compound B221]
31 | 0.041 | 0.05 | 0.4365 | C[C@H](NC(=O)[C@H](C)N1Cc2c(F)cccc2NC1=O)c1ccc(F)cc1F [Compound B222]
32 | 1.426 | 0.44 | 3.783 | C[C@H](NC(=O)[C@@H](C)N1Cc2c(F)cccc2NC1=O)c1ccc(F)cc1F [Compound B223]
33 | 3.991 | 28.57 | 100 | Cc1cc(F)ccc1[C@@H](C)NC(=O)CN1Cc2cc(F)ccc2NC1=O [Compound B224]
34 | 0.0175 | 0.05 | 0.1849 | Cc1cc(F)ccc1[C@H](C)NC(=O)CN1Cc2cc(F)ccc2NC1=O [Compound B225]
35 | 0.0244 | 0.14 | 0.2274 | C[C@H](NC(=O)CN1Cc2c(Br)cccc2NC1=O)c1ccc(F)cc1F [Compound B226]
36 | 0.0127 | 0.06 | 0.2485 | C[C@H](NC(=O)[C@H](C)N1Cc2c(Br)cccc2NC1=O)c1ccc(F)cc1F [Compound B227]
37 | 0.2844 | 0.32 | 2.111 | C[C@H](NC(=O)[C@@H](C)N1Cc2c(Br)cccc2NC1=O)c1ccc(F)cc1F [Compound B228]
38 | 0.0356 | 0.06 | 0.156 | C[C@H](NC(=O)CN1C(=O)Nc2ccccc2C12CC2)c1ccc(F)cc1F [Compound B229, N-[(1S)-1-(2,4-Difluorophenyl)ethyl]-2-{2′-oxo-1′H-spiro[cyclopropane-1,4′-quinazolin]-3′-yl}acetamide]
39 | 0.182 | 0.22 | 1.835 | C[C@H](NC(=O)CN1Cc2cc(F)ccc2NC1=O)c1ncc(F)cc1F [Compound B230]
40 | 100 | 1.15 | 100 | C[C@H](NC(=O)CN1C(=O)Nc2ccc(F)cc2[C@H]1C(F)(F)F)c1ccc(F)cc1F [Compound B235]
41 | 0.0333 | 0.03 | 0.2316 | C[C@H](NC(=O)[C@@H](C)N1Cc2c(ccc(F)c2F)NC1=O)c1ccc(F)cc1F [Compound B236]
42 | 0.3164 | 0.28 | 8.122 | C[C@H](NC(=O)[C@H](C)N1Cc2c(ccc(F)c2F)NC1=O)c1ccc(F)cc1F [Compound B237]
43 | 0.0116 | 0.03 | 0.1435 | C[C@H](NC(=O)CN1Cc2c(ccc(F)c2F)NC1=O)c1ccc(F)cc1F [Compound B238]
